Test systems include LOX IMVI melanoma; HCT-116 colon; KM12 colon; U251 CNS; UACC-62 melanoma; COLO 205 colon; ACHN renal; HOP-92 NSCLC; NCI-H226 lung; CAKI-1 renal.
Assay in all cases: NCI-60 cell line screen, 48 h

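How tested: cells in 96-well plates exposed to compound for 48 hours at five concentrations. Here, GI50 denotes the concentration required for 50% inhibition of growth. At the TGI there is no net growth.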 Some results are limits rather than exact numbers.

Consider `NC(N)=NCCCC(=O)O`, for which the TGI in the test with LOX IMVI melanoma, in the test with HCT-116 colon, with KM12 colon, in the test with U251 CNS, in the test on UACC-62 melanoma and in the test with COLO 205 colon was greater than 100 µM each time. In addition, the TGI with ACHN renal, with HOP-92 NSCLC, in the test with NCI-H226 lung and in the test on CAKI-1 renal was greater than 100 µM each time.
With `NNC(=O)CNc1cccc(Br)c1`, the TGI in the test with LOX IMVI melanoma, in the test with HCT-116 colon, with KM12 colon, with U251 CNS, with UACC-62 melanoma and in the test with COLO 205 colon was greater than 100 µM each time. Further, the TGI with ACHN renal, in the test with HOP-92 NSCLC, with NCI-H226 lung and in the test on CAKI-1 renal was greater than 100 µM in each case.
As to `CCN1CCN(c2cc(C)c3cc(NC(=O)c4ccc(OC)c(OC)c4)ccc3n2)CC1`, the GI50 is 9.36 µM in the test with LOX IMVI melanoma; 3.16 µM in the test with HCT-116 colon; 3.48 µM with KM12 colon; greater than 50.5 µM with U251 CNS; greater than 39.4 µM in the test on UACC-62 melanoma; 3.23 µM in the test with COLO 205 colon. Further, the GI50 in the test on ACHN renal is greater than 34.4 µM; with HOP-92 NSCLC, 13.4 µM; in the test on NCI-H226 lung, greater than 54.7 µM; with CAKI-1 renal, greater than 44.6 µM. For the same molecule, the TGI is 24.3 µM in the test on LOX IMVI melanoma; greater than 100 µM in the test on HCT-116 colon; greater than 86.3 µM with KM12 colon; greater than 100 µM with U251 CNS; greater than 64.8 µM with UACC-62 melanoma; greater than 37.6 µM with COLO 205 colon. For the same molecule, the TGI with ACHN renal was greater than 100 µM; in the test with HOP-92 NSCLC, 85.5 µM; in the test on NCI-H226 lung it was greater than 100 µM; in the test with CAKI-1 renal, greater than 100 µM.
As to `CCOc1ccc(/C=C2\N=C(c3ccc([N+](=O)[O-])cc3)OC2=O)cc1`, the TGI in the test on LOX IMVI melanoma, in the test on HCT-116 colon, in the test on KM12 colon, in the test with U251 CNS, with UACC-62 melanoma and with COLO 205 colon was greater than 100 µM throughout. The TGI in the test with ACHN renal, in the test with HOP-92 NSCLC, in the test on NCI-H226 lung and in the test with CAKI-1 renal was greater than 100 µM each time.
As to `COc1ccc2nc3ccccc3c(NCc3ccc(F)cc3)c2c1`, the GI50 in the test with LOX IMVI melanoma was 0.841 µM; in the test on HCT-116 colon, 1.75 µM; with KM12 colon, 2.42 µM; in the test on U251 CNS it was 1.94 µM; in the test on UACC-62 melanoma it was 3.48 µM; in the test with COLO 205 colon, 1.11 µM. For the same molecule, the GI50 in the test with ACHN renal was 1.82 µM; in the test on HOP-92 NSCLC, 1.39 µM; in the test with NCI-H226 lung, 1.81 µM; in the test with CAKI-1 renal, 1.73 µM. Also, the TGI in the test with LOX IMVI melanoma was determined as 1.71 µM; with HCT-116 colon it was 6.5 µM; with KM12 colon, 8.88 µM; in the test with U251 CNS, 7.82 µM; in the test on UACC-62 melanoma it was 10.2 µM; with COLO 205 colon, 2.78 µM. Further, the TGI amounted to 6.68 µM in the test on ACHN renal, 6.6 µM with HOP-92 NSCLC, 9.28 µM in the test on NCI-H226 lung and 7.05 µM with CAKI-1 renal.
With `c1ccc2c(OCCSCCCCCCCCCCSCCOc3cccc4ccccc34)cccc2c1`, the TGI in the test on LOX IMVI melanoma, with KM12 colon, in the test with U251 CNS, with UACC-62 melanoma, in the test on COLO 205 colon and with ACHN renal was greater than 100 µM in each case. The TGI with HOP-92 NSCLC, with NCI-H226 lung and in the test on CAKI-1 renal was greater than 100 µM throughout.
`CNCCOC(=O)/C=C1\CC[C@H]2[C@@H]([C@@H](O)C(=O)[C@@H]3[C@]2(C)CC[C@H](O)[C@]3(C)C(=O)OC)[C@H]1C`: the GI50 was 0.357 µM in the test on LOX IMVI melanoma; 0.294 µM in the test on HCT-116 colon; 0.564 µM in the test with KM12 colon; 0.324 µM in the test on U251 CNS; 1.41 µM in the test with UACC-62 melanoma; 1.55 µM in the test with COLO 205 colon. The GI50 was 0.25 µM in the test on ACHN renal, 0.527 µM with HOP-92 NSCLC, 0.566 µM with NCI-H226 lung and 0.315 µM in the test on CAKI-1 renal. The TGI amounted to 1.38 µM in the test with LOX IMVI melanoma; 1.03 µM in the test with HCT-116 colon; 2.12 µM with KM12 colon; 1.17 µM with U251 CNS; 2.93 µM in the test on UACC-62 melanoma; 3.04 µM in the test with COLO 205 colon. In addition, the TGI in the test with ACHN renal was found to be 0.785 µM; with HOP-92 NSCLC, 3.52 µM; with NCI-H226 lung, 1.99 µM; in the test on CAKI-1 renal it was 1.08 µM.
Take `Nc1ncn([C@@H]2O[C@H](CO)[C@@H](O)[C@H]2O)c(=O)n1`: the GI50 was 0.292 µM in the test with LOX IMVI melanoma; 0.322 µM with HCT-116 colon; 0.658 µM in the test with UACC-62 melanoma; 1.21 µM in the test with COLO 205 colon; 0.664 µM in the test with ACHN renal; 3.06 µM with HOP-92 NSCLC. The GI50 was 1.39 µM in the test with NCI-H226 lung and 0.275 µM with CAKI-1 renal. The TGI with LOX IMVI melanoma was found to be 2.1 µM; in the test with HCT-116 colon, 1.71 µM; in the test on UACC-62 melanoma, 8.67 µM; in the test on COLO 205 colon it was 3.02 µM; with ACHN renal, 16.7 µM; in the test with HOP-92 NSCLC, 44.5 µM. The TGI in the test on NCI-H226 lung came to 9.63 µM; in the test with CAKI-1 renal it was 3.25 µM.
In the case of `COC(=O)[C@]12CC[C@@H](C)[C@H](C)[C@@H]1C1=CC[C@@H]3[C@@]4(C)C[C@@H](O)[C@H](O)[C@@](C)(CO)C4=CC[C@@]3(C)[C@]1(C)CC2`, the GI50 was 16.8 µM in the test with LOX IMVI melanoma; 19 µM in the test with HCT-116 colon; 14.8 µM in the test with KM12 colon; 16.5 µM with U251 CNS; 17.9 µM in the test on COLO 205 colon; 17.7 µM with ACHN renal. The GI50 with HOP-92 NSCLC was 19.2 µM; with NCI-H226 lung, 20.1 µM; with CAKI-1 renal it was 15.6 µM. Moreover, the TGI came to 34.9 µM in the test on LOX IMVI melanoma; 37.2 µM in the test with HCT-116 colon; 32.5 µM in the test with KM12 colon; 34.1 µM in the test with U251 CNS; 34.4 µM with COLO 205 colon; 33.8 µM in the test with ACHN renal. Besides, the TGI in the test on HOP-92 NSCLC worked out at 34.9 µM; with NCI-H226 lung, 40.4 µM; in the test on CAKI-1 renal, 29.8 µM.

Source of the values: PubChem BioAssay (NCI).
